In patent publication US20230235289A1, “METHOD FOR FIBROBLAST REJUVENATION BY MECHANICAL REPROGRAMMING AND REDIFFERENTIATION” (Paul Scherrer Institut, priority 2020, published 2023):

What was measured:
[1] = system: RF embedded in fibrillary collagen matrix; test: Collagen fibre remodeling/stiffening by matrix-embedded fibroblasts (immunostained collagen); assay type: cell-based, mouse; conditions: for collagen fiber stiffening: addition to spheroids sprouting in collagen matrix
Description: In order to characterize these RF in vitro, one compared the gel contraction abilities of cells derived from PR spheroids or from FC, both of which were equally embedded in the 3D collagen matrix. […] Fibroblasts are known to exert mechanical forces on the extracellular matrix surrounding them. […] Both RF and FCG embedded in fibrillary collagen matrix were able to remodel collagen fibrils into thicker bundles (FIG. 3F).
(§1) Cells embedded in Collagen-I gel were fixed with 4% Paraformaldehyde (Sigma) in PBS buffer (pH 7.4) for 25 min, followed by washing with PBS+100 mM glycine buffer (5 min×3). Cells were permeabilized using 0.5% Triton (Sigma-Aldrich) in PBS for 20 min, followed by washing with PBS-glycine buffer (5 min×3). After that, cells were blocked with 10% goat serum (ThermoFisher Scientific) in IF wash buffer (PBS+0.2% Triton+0.2% tween 20) for 3 h at room temperature. Next, cells were incubated overnight with different primary antibodies diluted in blocking buffer, followed by washing with IF wash buffer (15 min×3). Cells were then incubated with corresponding fluorescent-labeled secondary antibodies diluted in 5% goat serum in IF wash buffer for 3 h at room temperature. Cell nuclei were stained with NucBlue Live Ready Probes (Molecular Probes; Thermo Fisher Scientific) in PBS for 10 min at room temperature, and filamentous actin was labeled using phalloidin Alexa Fluor 488 or 568 (1:100; Molecular Probes; Thermo Fisher Scientific) for 45 min.
Fluorescent images of 3D spheroids and cells embedded in 3D Collagen-I gel were acquired by using Nikon AIR laser scanning confocal microscope (Nikon Instruments Inc, Japan), at either 20× magnification (Plan Apo 20× ELWD, NA 0.8) or 63× magnification (1.25 NA oil objective) with identical acquisition settings. In the Z dimension, each spheroid and 3D Collagen-I gel was scanned up to a depth of 50 μm, with a step size of 1 to 5 μm. Confocal images of either 512×512 or 1024×1024 pixels were obtained with an XY optical resolution of 0.42 μm or 0.21 μm, respectively. Time lapse imaging was done in confocal mode for up to 60 min and 18 h with 60 s and 30 m time intervals, respectively. Bright-field images were acquired using the EVOS FL Cell Imaging System (Thermo Fisher Scientific). For gel contraction assay, images of collagen gel at different days of cell growth were acquired with a mobile camera at a fixed magnification. The fluorescence intensity was measured for each protein in its respective channel and the number of gH2Ax foci per nucleus was determined using custom-written code in Fiji (NI) MATLAB (Mathworks) and IMARIS8. The sprouting length of each spheroid embedded in 3D collagen matrix was measured from the large field fluorescent micrograph of actin using AngioTools software.

[2] = system: 6 day-old spheroids of NIH3T3 mouse embryonic fibroblasts; test: Cell sprouting from partially reprogrammed spheroids in 3D collagen matrix (AngioTools); assay type: cell-based; conditions: addition to spheroids sprouting in collagen matrix
Description: These 6 day-old spheroids were embedded in collagen gels and cultured for at least 2 days (FIG. 1A). Within few hours, cells originating from the spheroids progressively invaded the collagen matrix and migrated either individually as unicellular sprouts (single cells) or collectively as complex capillary-like structures (FIG. 1B). In addition to cell invasion, morphological modifications in the spheroid core itself were detected. While the spheroids initially appeared as a compact structure, subsequent cell migration induced spheroid expansion occurred and led to breaches in the spheroid core. […]
(§2) Fluorescent images of 3D spheroids and cells embedded in 3D Collagen-I gel were acquired by using Nikon AIR laser scanning confocal microscope (Nikon Instruments Inc, Japan), at either 20× magnification (Plan Apo 20× ELWD, NA 0.8) or 63× magnification (1.25 NA oil objective) with identical acquisition settings. […] The fluorescence intensity was measured for each protein in its respective channel and the number of gH2Ax foci per nucleus was determined using custom-written code in Fiji (NI) MATLAB (Mathworks) and IMARIS8. The sprouting length of each spheroid embedded in 3D collagen matrix was measured from the large field fluorescent micrograph of actin using AngioTools software.

[3] = system: FC embedded in 3D collagen matrix (FCG); test: pMLC immunofluorescence of sprouted cells in 3D collagen matrix; assay type: cell-based, mouse
Protocol: as §1, with “Cells were then incubated with corresponding fluorescent-labeled secondary antibodies diluted in 5% goat serum in IF wash buffer for 3 h at room temperature.” left out
as §2, with “The” for “The fluorescence intensity was measured for each protein in its respective channel and the number of gH2Ax foci per nucleus was determined using custom-written code in Fiji (NI) MATLAB (Mathworks) and IMARIS8. The”

[4] = system: FC (3T3 clumps); test: H3K9ac immunofluorescence; assay type: cell-based, mouse; conditions: TSA-treated FC compared to untreated FC
Protocol: as §1, with “Cells were then incubated with corresponding fluorescent-labeled secondary antibodies diluted in 5% goat serum in IF wash buffer for 3 h at room temperature.” left out
as §2, with “The” for “The fluorescence intensity was measured for each protein in its respective channel and the number of gH2Ax foci per nucleus was determined using custom-written code in Fiji (NI) MATLAB (Mathworks) and IMARIS8. The”

[5] = system: FC (3T3 clumps); test: Nuclear dynamics by time-lapse confocal microscopy of Hoechst 33342 stained nuclei; assay type: cell-based, mouse; conditions: TSA-treated FC compared to control FC
Protocol: Nuclear dynamics were analyzed from the decorrelation of the nuclear images in time as described previously(37). Time-lapse live-imaging of nucleus stained with Hoechst 33342 (ThermoFisher Scientific) was done in confocal mode with time intervals of one minute for up to 32 minutes in PR, FC and FC+TSA conditions. One Pearson correlation coefficient (PCC) value was calculated from two lists of pixel intensity of the same nucleus captured in different time points with a certain time lag. For each cell, one PCC curve was drawn which connecting all PCCs (as y) with the increasing time lags (as x) as represented in dim color in FIG. 5A. The mean PCC curves for all cells in each condition, were drawn in bright color in FIG. 5A. The mean PCC curves in each condition were fitted by equation y=(1−α)+α exp(−t/τ)−η, where y refers to PCC value, t is time lags, fitting parameter α is drop rate, τ is time constant, η is noise.

`Cc1ccc2c(c1)C(=O)C1(O)CCN(c3ccccc3)C1=N2` (stereo not shown) [blebbistatin] was tested, and the collagen fiber stiffening [1] was “drop” and the average sprouting length [2] was “significant reduction”.

With `C=C1[C@@H](C)[C@H]2[C@H](Cc3ccccc3)NC(=O)[C@]23[C@H](OC(C)=O)/C=C/[C@@](C)(O)C(=O)[C@@H](C)C/C=C/[C@H]3[C@@H]1O` [cytoD, cytochalasin D] the “remodeling of collagen fibrils around RF” value ([1]; 4 μM) was “very less or no remodeling”, the collagen fiber stiffening [1] was “drop” and the average sprouting length [2] was “significant reduction”.

With `C[C@@H](N)[C@H]1CC[C@H](C(=O)Nc2ccncc2)CC1` [Y-27632] the “remodeling of collagen fibrils around RF” value ([1]; 25 μM) was “very less or no remodeling”.

For `CC(/C=C/C(=O)NO)=C\[C@@H](C)C(=O)c1ccc(N(C)C)cc1` [TSA, Trichostatin A], the “level of pMLC” value ([3]; TSA-treated FCG compared to untreated FCG and RF) was “higher level”, the “contractility upon exposure to ECM-related cues” value ([3]; fibroblasts treated with the HDAC inhibitor) was “increased contractility” and the H3K9ac levels [4] was “significant increase”. For the same compound, the nuclear dynamics [5] was “increase in nuclear dynamics”.
